Experimental findings from patent US20110160206A1, “TRI-SUBSTITUTED PYRIMIDINE COMPOUNDS AND THEIR USE AS PDE10 INHIBITORS” (priority 2009, published 2011) are described below.

Structures can show the parent of a compound that is named as a salt.

For the assay, the target named is T1, PDE10 (PDE10A) (Bos taurus, UniProt A0A3Q1MHJ4).
T1 construct: isolated and prepared from bovine corpus striatum; from tissue; host or cells: bovine corpus striatum
T1 sequence (A0A3Q1MHJ4 1-1068): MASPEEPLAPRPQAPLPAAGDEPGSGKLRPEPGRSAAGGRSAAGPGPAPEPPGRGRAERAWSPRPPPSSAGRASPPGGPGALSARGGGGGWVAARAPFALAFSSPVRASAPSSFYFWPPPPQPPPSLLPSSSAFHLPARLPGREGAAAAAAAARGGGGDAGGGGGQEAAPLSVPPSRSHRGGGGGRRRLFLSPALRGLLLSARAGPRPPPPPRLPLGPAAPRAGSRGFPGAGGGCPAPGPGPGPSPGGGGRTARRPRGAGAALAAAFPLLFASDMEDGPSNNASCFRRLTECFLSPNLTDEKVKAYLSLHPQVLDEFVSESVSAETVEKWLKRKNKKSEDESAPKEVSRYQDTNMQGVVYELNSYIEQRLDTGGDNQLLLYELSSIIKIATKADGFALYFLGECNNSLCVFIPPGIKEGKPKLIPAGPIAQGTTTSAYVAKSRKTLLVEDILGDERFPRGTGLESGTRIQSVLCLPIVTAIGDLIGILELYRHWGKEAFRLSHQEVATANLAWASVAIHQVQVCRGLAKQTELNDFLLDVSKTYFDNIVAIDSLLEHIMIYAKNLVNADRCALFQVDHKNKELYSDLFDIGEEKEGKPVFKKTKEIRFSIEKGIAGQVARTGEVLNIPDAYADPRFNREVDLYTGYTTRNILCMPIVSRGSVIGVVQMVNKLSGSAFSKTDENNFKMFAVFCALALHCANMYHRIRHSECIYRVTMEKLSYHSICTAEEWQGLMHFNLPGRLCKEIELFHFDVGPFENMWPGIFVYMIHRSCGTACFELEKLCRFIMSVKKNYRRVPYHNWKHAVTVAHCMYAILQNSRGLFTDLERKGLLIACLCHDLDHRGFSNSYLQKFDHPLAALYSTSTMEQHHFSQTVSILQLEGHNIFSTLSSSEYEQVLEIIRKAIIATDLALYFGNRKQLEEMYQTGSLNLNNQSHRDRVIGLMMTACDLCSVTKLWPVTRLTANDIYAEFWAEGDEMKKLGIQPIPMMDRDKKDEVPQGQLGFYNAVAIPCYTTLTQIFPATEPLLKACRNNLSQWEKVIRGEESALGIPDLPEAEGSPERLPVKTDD
The assay is described as follows: Measurement of PDE10 inhibitory activity (radiolabeled nucleotide PDE assay). The class given is biochemical. The note with it: PDE10A from bovine corpus striatum; [3H]cAMP 7 nM final; room temperature 90 min. How it is done: (1) The enzyme PDE10 (PDE10A) was isolated and prepared from bovine corpus striatum, according to the methods described in references Fujishige et al., Eur. J. Biochem., vol. […] The enzyme solution obtained was used for a PDE assay.
Specifically, the measurements of the inhibitory activities were carried out in the following method.
(Method) The test compounds were dissolved in dimethyl sulfoxide (DMSO). […] The final concentration of cAMP in the reaction mixtures was 7 nM. The reaction mixtures were incubated at room temperature for 90 min under dark conditions. After incubation, the reaction was stopped by adding 100 μL of methanol and resultant solutions were applied to filter plate containing Dowex (1×8 200-400) and centrifuged. 50 μL of the eluate together with wash eluate with additional 100 μL methanol was collected in another plate and the radioactivity was measured with 250 μL of scintillant.
(2) The compounds in the Examples below were tested for PDE inhibition using the Method described above.
What is called IC50 is the midpoint of a concentration-inhibition curve. The low end stands for inhibition by little substance, the high end for a need for much substance. Consider `Cc1nc2ccccc2nc1OCc1nc(N2CCCC2)cc(N(C)C2CCOCC2)n1` [Example 5.002, N-methyl-2-{[(3-methylquinoxalin-2-yl)oxy]methyl}-6-pyrrolidin-1-yl-N-(tetrahydro-2H-pyran-4-yl)pyrimidin-4-amine hydrochloride], for which the concentration for half-maximal inhibition (IC50) was 0.61 nM.

`Cc1nc2ccccc2nc1/C=C/c1nc(N[C@H]2CC[C@H](CO)CC2)cc(N2CCCC2)n1` [Example 1.024, [trans-4-({2-[(E)-2-(3-methylquinoxalin-2-yl)vinyl]-6-pyrrolidin-1-ylpyrimidin-4-yl}amino)cyclohexyl]methanol] showed an IC50 of 0.039 nM.

With `Cc1nc2ccc(OC(F)(F)F)cc2nc1/C=C/c1nc(N[C@H]2CC[C@H](O)CC2)cc(N2CCCC2)n1` [Example 1.084, trans-4-[(2-{(E)-2-[3-methyl-7-(trifluoromethoxy)quinoxalin-2-yl]vinyl}-6-pyrrolidin-1-ylpyrimidin-4-yl)amino]cyclohexanol], the concentration for half-maximal inhibition (IC50) came to 0.011 nM.

For the molecule `Cc1nc2ccccc2nc1OCc1cc(NC2CCOCC2)nc(N2CCCC2)n1` [Example 6.001, 6-[(3-methylquinoxalin-2-yl)oxy]methyl-2-pyrrolidin-1-yl-N-(tetrahydro-2H-pyran-4-yl)pyrimidin-4-amine hydrochloride], the midpoint of inhibition, the IC50, lay at 0.22 nM.

In turn, `Cc1cc2ccccc2nc1/C=C/c1nc(N[C@@H]2CCS(=O)(=O)C2)cc(N2CCCC2)n1` [Example 1.093, N-[(3R)-1,1-dioxidotetrahydro-3-thienyl]-2-[(E)-2-(3-methylquinolin-2-yl)vinyl]-6-pyrrolidin-1-ylpyrimidin-4-amine] registered an IC50 of 0.3 nM.

Molecule `CN(C)c1nc2ccccc2nc1/C=C/c1nc(N2CCCC2)cc(N2CCOCC2)n1` [Example 1.095, N,N-dimethyl-3-[(E)-2-(4-morpholin-4-yl-6-pyrrolidin-1-ylpyrimidin-2-yl)vinyl]quinoxalin-2-amine] displayed a half-inhibitory concentration (IC50) of 0.79 nM.

Take `Cc1cc2ccccc2nc1/C=C/c1nc(NC2CCOCC2)cc(N2CCCC2)n1` [Example 1.090, 2-[(E)-2-(3-methylquinolin-2-yl)vinyl]-6-pyrrolidin-1-yl-N-(tetrahydro-2H-pyran-4-yl)pyrimidin-4-amine]: the IC50 is 0.36 nM.

The molecule `CO[C@H]1CC[C@H](Nc2cc(N3CCCC3)nc(/C=C/c3nc4ccc(F)cc4nc3C)n2)CC1` [Example 1.048, 2-[(E)-2-(6-fluoro-3-methylquinoxalin-2-yl)vinyl]-N-(trans-4-methoxycyclohexyl)-6-pyrrolidin-1-ylpyrimidin-4-amine dihydrochloride] registered an IC50 of 0.04 nM.

As for `CN(C)c1nc2ccccc2nc1/C=C/c1nc(NC2CCOCC2)cc(N2CCCC2)n1` [Example 1.001, N,N-dimethyl-3-{(E)-2-[4-pyrrolidin-1-yl-6-(tetrahydro-2H-pyran-4-ylamino)pyrimidin-2-yl]vinyl}quinoxalin-2-amine dihydrochloride], the IC50 came to 0.1 nM.

On to `CN(C)c1nc2ccccc2nc1/C=C/c1nc(N2CCCC2)cc(N(C2CCOCC2)C2CC2)n1` [Example 1.099, 3-((E)-2-{4-[cyclopropyl(tetrahydro-2H-pyran-4-yl)amino]-6-pyrrolidin-1-ylpyrimidin-2-yl}vinyl)-N,N-dimethylquinoxalin-2-amine], for which the half-inhibitory concentration (IC50) came out at 0.1 nM.

For `CN(c1cc(N2CCCC2)nc(/C=C/c2nc3ccccc3nc2N(C)C2CC2)n1)C1CCOCC1` [Example 1.101, N-cyclopropyl-N-methyl-3-((E)-2-{4-[methyl(tetrahydro-2H-pyran-4-yl)amino]-6-pyrrolidin-1-ylpyrimidin-2-yl}vinyl)quinoxalin-2-amine], the IC50 came to 0.46 nM.

Molecule `COCCNc1cc(N2CCCC2)nc(/C=C/c2nc3ccccc3nc2N(C)C)n1` [Example 1.003, 3-((E)-2-{4-[(2-methoxyethyl)amino]-6-pyrrolidin-1-ylpyrimidin-2-yl}vinyl)-N,N-dimethylquinoxalin-2-amine] yielded an IC50 of 0.6 nM.

Molecule `Cc1nc2ccc(C(F)(F)F)cc2nc1/C=C/c1nc(N[C@@H]2CCS(=O)(=O)C2)cc(N2CCCC2)n1` [Example 1.074, N-[(3R)-1,1-dioxidotetrahydro-3-thienyl]-2-{(E)-2-[3-methyl-7-(trifluoromethyl)quinoxalin-2-yl]vinyl}-6-pyrrolidin-1-ylpyrimidin-4-amine] returned a concentration for half-maximal inhibition (IC50) of 0.0033 nM.

Turning to `Oc1nc2ccccc2nc1/C=C/c1nc(NC2CCOCC2)cc(N2CCCC2)n1` [Example 1.094, 3-{(E)-2-[4-pyrrolidin-1-yl-6-(tetrahydro-2H-pyran-4-ylamino)pyrimidin-2-yl]vinyl}quinoxalin-2-ol hydrochloride], the concentration for half-maximal inhibition (IC50) was determined as 0.17 nM.

`CN(C)c1nc2ccccc2nc1/C=C/c1nc(N[C@@H]2CCS(=O)(=O)C2)cc(N2CCCC2)n1` [Example 1.007, 3-[(E)-2-(4-{[(3R)-1,1-dioxidotetrahydro-3-thienyl]amino}-6-pyrrolidin-1-ylpyrimidin-2-yl)vinyl]-N,N-dimethylquinoxalin-2-amine] displayed an IC50 of 0.09 nM.

The molecule `Cc1ccc2nc(C)c(/C=C/c3nc(N[C@H]4CC[C@](C)(O)CC4)cc(N4CCCC4)n3)nc2c1` [Example 1.064, trans-4-({2-[(E)-2-(3,7-dimethylquinoxalin-2-yl)vinyl]-6-pyrrolidin-1-ylpyrimidin-4-yl}amino)-1-methylcyclohexanol] displayed an IC50 of 0.048 nM.

Regarding `Cc1nc2ccccc2nc1/C=C/c1nc(N[C@H]2CC[C@](C)(O)CC2)cc(N2CCCC2)n1` [Example 1.020, trans-1-methyl-4-({2-[(E)-2-(3-methylquinoxalin-2-yl)vinyl]-6-pyrrolidin-1-ylpyrimidin-4-yl}amino)cyclohexanol], 0.073 nM corresponded to half-maximal inhibition (IC50).

For the molecule `CO[C@H]1CC[C@H](Nc2cc(N3CCCC3)nc(CCc3nc4cc(C(F)(F)F)ccc4nc3C)n2)CC1` [Example 4.003, N-(trans-4-methoxycyclohexyl)-2-{2-[3-methyl-7-(trifluoromethyl)quinoxalin-2-yl]ethyl}-6-pyrrolidin-1-ylpyrimidin-4-amine], the half-inhibitory concentration (IC50) turned out to be 0.031 nM.

Turning to `CN(c1nc2ccccc2nc1/C=C/c1nc(NC2CCOCC2)cc(N2CCCC2)n1)C1CC1` [Example 1.010, N-cyclopropyl-N-methyl-3-{(E)-2-[4-pyrrolidin-1-yl-6-(tetrahydro-2H-pyran-4-ylamino)pyrimidin-2-yl]vinyl}quinoxalin-2-amine], the half-inhibitory concentration (IC50) was found to be 0.48 nM.

`Cc1nc2ccc(F)cc2nc1/C=C/c1nc(NC2CCOCC2)cc(N2CCCC2)n1` [Example 1.050, 2-[(E)-2-(7-fluoro-3-methylquinoxalin-2-yl)vinyl]-6-pyrrolidin-1-yl-N-(tetrahydro-2H-pyran-4-yl)pyrimidin-4-amine hydrochloride] displayed a concentration for half-maximal inhibition (IC50) of 0.14 nM.

As to `Cc1cc2nc(C)c(/C=C/c3nc(N[C@@H]4CCOC4)cc(N4CCCC4)n3)nc2cc1C` [Example 1.041, 6-pyrrolidin-1-yl-N-[(3R)-tetrahydrofuran-3-yl]-2-[(E)-2-(3,6,7-trimethylquinoxalin-2-yl)vinyl]pyrimidin-4-amine], the 50% inhibitory concentration (IC50) worked out at 0.66 nM.

The molecule `COc1ccc2nc(C)c(/C=C/c3nc(NC4CCOCC4)cc(N4CCCC4)n3)nc2c1` [Example 1.078, 2[(E)-2-(7-methoxy-3-methylquinoxalin-2-yl)vinyl]-6-pyrrolidin-1-yl-N-(tetrahydro-2H-pyran-4-yl)pyrimidin-4-amine dihydrochloride] registered an IC50 of 0.047 nM.
